Experimental data published in patent publication US9476050B2, “Combination therapy” (TURUN YLIOPISTO, priority 2011, dated 2016).
Entries after “also recorded” stand apart in the source; their conditions may differ. *: point of attachment. Cbz = O=C(OCc1ccccc1)*; CH2F = FC*

How the values were obtained:
Format in all cases: cell-based, human
[1] = system: T98G glioblastoma cells; assay: Apoptosis assay by sub-G0/G1 fraction estimation (apoptotic nuclear fragmentation, PI staining, FACS); settings: for Potentiation % (apoptotic nuclear fragmentation): T98G transfected with PME-1 specific dsRNA; for level of apoptosis in PME-1 depleted cells: PME-1 siRNA 48 hrs, then drug 24 hrs; for sensitization to STS mediated apoptosis: siRNA or chemical PP2A activator followed by STS 24 hrs; for reversal of PME-1 siRNA and STS mediated apoptosis: agent added to, or siRNA co-transfected with, PME-1 siRNA plus STS
Method: The percentage of the sub-G0/G1 fraction containing fragmented nuclei stained with Propidium iodide (P1) was taken as a measure of apoptotic cells. 3.5-4×10^4 cells were plated in 24-well plates, transfected with siRNA for 48 hrs, and then treated with indicated concentration of test compounds in fresh media. After 24 hrs of treatment, both floating and adherent cells were harvested by centrifugation. Cell pellets were resuspended in 400 μl of hypotonic PI buffer, containing 40 mM Tri-sodium citrate (Merck), 0.3% Triton X-100 (Sigma-Aldrich) and 50 μg/ml Propidium iodide (Sigma-Aldrich) in PBS, and incubated at room temperature for 10 minutes in dark. The flow cytometric analysis of PI stained nuclei was performed and the recorded data was analyzed using a FACScan flow cytometer and software (Becton Dickinson) respectively.
In experiments using pan-caspase inhibitor, cells were kept in growth media containing 30 μM Z-VAD-FMK starting from 18 hrs after transfection till the PI staining. For treatment with PP2A activators FTY720, Sodium Selenate and Xylulose-5-phosphate, cells were kept in respective drugs throughout the experiment starting from 24 hrs after transfection. PP2A inhibitor, Okadaic acid, treatment was given for 24 hrs after 24 hrs of transfection.
The T98G cells transfected with siRNA for 48 hrs were given drug treatments for 24 hrs and were subsequently lysed, and their nuclei were stained using hypotonic propidium iodide buffer. The lysates were analysed for changes in the sub-G0/G1 fraction of fragmented nuclei by flow cytometry (FACS) (FIG. 1B). Condensation and fragmentation of nucleus is a key biochemical feature of apoptosis and sub-G0/G1 analysis has been widely used for detection of apoptosis (FEBS Lett., 1986, 194(2):347-50; Cytometry, 1991, 12(4):323-329; Nature Protocols, 2006, 1:1458-1461).

[2] = system: U251MG glioblastoma cells; assay: Colony formation assay, U251MG; settings: scrambled or PME-1 siRNA, then drug 2 days; FIG. 5C
Excerpt: (§1) Cells plated in very low density (4-6×10^3) in 6-well plates were allowed to grow for about 7 days until they form small colonies. These cells were then transfected with Scrambled or PME-1 siRNA using Lipofectamine RNAiMAX reagent (Invitrogen) according to the manufacturer's instructions. After 48 hrs, treatments were given with indicated concentration of chemical drugs for another 48 hrs. Cell colonies were washed with PBS, fixed with 3.7% formaldehyde and stained with 0.2% crystal violet solution (made in 10% ethanol) for 15 minutes at room temperature each. Excess stain was removed by repeated washings with PBS. Plates were dried and pictures were taken with Olympus SP-600UZ camera or Epson perfection V700 scanner and analysed with ImageJ.

[3] = system: U87MG glioblastoma cells; assay: Colony formation assay, U87MG; settings: scrambled or PME-1 siRNA, then drug 2 days; FIG. 5D
Excerpt: as §1

[4] = system: T98G glioblastoma cells; assay: Colony formation assay, T98G
Excerpt: as §1
(§2) The efficacy of this treatment combination was then tested by colony formation assay in T98G glioblastoma cells and another glioblastoma cell line U118MG. For this experiment, these cells were grown in 6-well plates until the formation of small colonies which were then transfected with Scrambled or PME-1 siRNA for 48 hrs followed by treatment with STS at the indicated concentrations for another 48 hrs.

[5] = system: U118MG glioblastoma cells; assay: Colony formation assay, U118MG
Excerpt: as §1, §2

[6] = system: T98G glioblastoma cells; assay: Cell viability assay, CellTiter-glo (CTG); settings: PME-1 siRNA plus STS treatment
Method: Cell viability was determined by CellTiter-glo (CTG) assay which measures the cellular ATP levels as an indicator of metabolically active and viable cells. CTG reagent kit was purchased from Promega Corp. and assays were performed according to their recommendations. Assays were performed in white polystyrene 96-well plates (Nunc, Thermo Fisher Scientific Inc.) and luminescence was measured with Perkin Elmer Victor2 Plate Reader.

[7] = system: Caspase-3 and -7 activity; assay: Caspase-Glo 3/7 assay in T98G cells; settings: PME-1 depletion in combination with STS treatment
Method: Caspase-3 and -7 activity was measured by luminescence based method, which utilize a substrate containing Caspase-3 and -7 target peptide DEVD, named Caspase-Glo 3/7 Assay (Promega Corp.). Assays were performed in white polystyrene 96-well plates (Nunc, Thermo Fisher Scientific Inc.) according to manufacturer's instructions and luminescence was measured with Perkin Elmer Victor2 Plate Reader.

[8] = PME-1 depletion or STS treatment alone
[9] = combination of PME-1 siRNA 48 hrs and STS 48 hrs

## O=C1NC(=O)c2c1c1c3ccccc3[nH]c1c1[nH]c3ccccc3c21 [Arcyriaflavin A, 12,13-Dihydro-5H-indolo[2,3-a] pyrrolo[3,4-c] carbazole-5,7(6H)-dione]
[1]; 5 μM drug
  Potentiation % (apoptotic nuclear fragmentation): 5-10%

## C[C@]12O[C@H](C[C@]1(O)CO)n1c3ccccc3c3c4c(c5c6ccccc6n2c5c31)CNC4=O [CEP-701, (9S,10S,12R)-2,3,9,10,11,12-Hexahydro-10-hydroxy-10-(hydroxymethyl)-9-methyl-9,12-epoxy-1H-diindolo[1,2,3-fg:3′,2′,1′-kl] pyrrolo[3,4-i][1, 6]benzodiazocin-1-one]
[1]; 50 nM drug
  Potentiation % (apoptotic nuclear fragmentation): 2-5%
[1]; 5 μM drug
  Potentiation % (apoptotic nuclear fragmentation): 75-80%
[1]; T98G
  level of apoptosis in PME-1 depleted cells: levels even higher than STS itself

## Cn1cc(C2=C(c3cn(C4CCN(Cc5ccccn5)CC4)c4ccccc34)C(=O)NC2=O)c2ccccc21 [Enzastaurin, 3-(1-Methyl-1H-indol-3-yl)-4-(1-(1-(2-pyridinylmethyl)-4-piperidinyl)-1H-indol-3-yl)-1H-pyrrole-2,5-dione]
[1]; 5 μM drug
  Potentiation % (apoptotic nuclear fragmentation): 15-20%

## CCCCCCCCc1ccc(CCC(N)(CO)CO)cc1 [FTY720]
[1]; T98G
  sensitization to STS mediated apoptosis: None of these chemical PP2A activators were able to sensitize

## Cn1c2ccccc2c2c3c(c4c5ccccc5n(CCC#N)c4c21)CNC3=O [GÖ-6976, 12-(2-Cyanoethyl)-6,7,12,13-tetrahydro-13-methyl-5-oxo-5H-indolo[2,3-a]pyrrolo[3,4-c]carbazole]
[1]; 5 μM drug
  Potentiation % (apoptotic nuclear fragmentation): 15-20%

## CC1CNCCN1S(=O)(=O)c1cccc2cnccc12 (stereo not shown) [H7]
[1]; T98G
  level of apoptosis in PME-1 depleted cells: moderate levels of apoptosis

## COC(=O)[C@@]1(O)C[C@H]2O[C@]1(C)n1c3ccccc3c3c4c(c5c6ccccc6n2c5c31)C(=O)NC4 [K252a, (9S,10R,12R)-2,3,9,10,11,12-Hexahydro-10-hydroxy-9-methyl-1-oxo-9,12-epoxy-1H-diindolo[1,2,3-fg:3′,2′,1′kl] pyrrolo[3,4-i][1,6] benzodiazocine-10-carboxylic acid methyl ester]
[1]; 500 nM drug
  Potentiation % (apoptotic nuclear fragmentation): 10-15%
[1]; 5 μM drug
  Potentiation % (apoptotic nuclear fragmentation): 80-90%
[1]; T98G
  level of apoptosis in PME-1 depleted cells: levels even higher than STS itself
[2]
  cell killing activity with PME-1 depletion (colony formation): enhanced the cell killing activity
[3]
  cell killing activity with PME-1 depletion (colony formation): enhanced the cell killing activity

## O=C1NCc2c1c1c3ccccc3[nH]c1c1[nH]c3ccccc3c21 [K252c, 6,7,12,13-Tetrahydro-5H-indolo[2,3-a]pyrrolo[3,4-c] carbazol-5-one]
[1]; 5 μM drug
  Potentiation % (apoptotic nuclear fragmentation): 15-20%

## C=C1[C@@H](O)[C@@H]2O[C@]3(CC[C@H](/C=C/[C@@H](C)[C@@H]4CC(C)=C[C@@]5(O[C@H](C[C@@](C)(O)C(=O)O)CC[C@H]5O)O4)O3)CC[C@H]2O[C@@H]1[C@@H](O)C[C@H](C)[C@H]1O[C@@]2(CCCCO2)CC[C@H]1C [OA, okadaic acid]
[1]; T98G
  reversal of PME-1 siRNA and STS mediated apoptosis: sufficient to rescue cells

## CO[C@@H]1[C@H](N(C)C(=O)c2ccccc2)C[C@H]2O[C@]1(C)n1c3ccccc3c3c4c(c5c6ccccc6n2c5c31)C(=O)NC4 [PKC412, [9S-(9α,10β,11β, 13α)]-N-(2,3,10, 11,12,13-Hexahydro-10-methoxy-9-methyl-1-oxo-9,13-epoxy-1 H,9H-diindolo [1,2,3-gh:3′,2′,1′-lm]pyrrolo[3,4-j][1,7]benzodiazonin-11-yl)-N-methyl benzamide]
[1]; 500 nM drug
  Potentiation % (apoptotic nuclear fragmentation): 5-10%
[1]; 5 μM drug
  Potentiation % (apoptotic nuclear fragmentation): 75-80%
[1]; T98G
  level of apoptosis in PME-1 depleted cells: levels even higher than STS itself
[2]
  cell killing activity with PME-1 depletion (colony formation): enhanced the cell killing activity
[3]
  cell killing activity with PME-1 depletion (colony formation): enhanced the cell killing activity

## Cn1cc(C2=C(c3cn(CCCSC(=N)N)c4ccccc34)C(=O)NC2=O)c2ccccc21 [RO-31-8220]
[1]; 5 μM drug
  Potentiation % (apoptotic nuclear fragmentation): 5-10%
[1]; T98G
  level of apoptosis in PME-1 depleted cells: not active

## COC1C(CO)OC(n2c3c(Cl)cccc3c3c4c(c5c6cccc(Cl)c6[nH]c5c32)C(=O)NC4=O)C(O)C1O (stereo not drawn) [Rebeccamycin, 5h-indolo(2,3-a)pyrrolo(3,4-c)carbazole-5,7(6h)-dione,1,11-dichloro-12,13-dihy;dro-12-(4-o-methyl-beta-d-glucopyranosyl)]
[1]; 5 μM drug
  Potentiation % (apoptotic nuclear fragmentation): 5-10%

## O=C1NC(=O)c2c1c1c3ccccc3n3c1c1c2c2ccccc2n1C1CCC3O1 [SB-218078, 9,10,11,12-Tetrahydro-9,12-epoxy-1H-diindolo [1,2,3-fg:3′,2′,1′-kl] pyrrolo[3,4-i][1,6] benzodiazocine-1,3(2H)-dione]
[1]; 50 nM drug
  Potentiation % (apoptotic nuclear fragmentation): 2-5%
[1]; 5 μM drug
  Potentiation % (apoptotic nuclear fragmentation): 25-30%
[1]; T98G
  level of apoptosis in PME-1 depleted cells: moderate levels of apoptosis

## CN[C@@H]1C[C@H]2O[C@@](C)([C@@H]1OC)n1c3ccccc3c3c4c(c5c6ccccc6n2c5c31)C(=O)NC4 [Staurosporine, [9S-(9α,10β,11β, 13α)]-2,3,10,11, 12,13-Hexahydro-10-methoxy-9-methyl-11-(methylamino)-9,13-epoxy-1H,9H-diindolo[1,2,3-gh:3′,2′,1′-lm] pyrrolo[3,4-j][1,7] benzodiazonin-1-one]
[1]; 50 nM drug
  Potentiation % (apoptotic nuclear fragmentation): 50-60%
[1]; T98G
  level of apoptosis in PME-1 depleted cells: very high level of apoptosis
[1]; T98G, listed as STS
  level of apoptosis in PME-1 depleted cells: dose dependent manner; also recorded: highly sensitive
[1]; control (Scrambled siRNA transfected) T98G cells
  concentration above which STS alone induces cell death: higher than 50 nM
[1]; untransfected T98G cells
  concentration above which STS alone gives limited amount of cell death: higher than 30 nM
[4]; [8]
  colony formation ability: moderately reduced
[4]; [9]
  colony formation ability: almost complete loss of colonies
[5]; [8]
  colony formation ability: moderately reduced
[5]; [9]
  colony formation ability: almost complete loss of colonies
[2]
  cell killing activity with PME-1 depletion (colony formation): enhanced the cell killing activity
[3]
  cell killing activity with PME-1 depletion (colony formation): enhanced the cell killing activity
[6]
  cell viability: drastic decrease
[7]
  increase of the activity of Caspase-3/7: above 6 fold

## CN[C@@H]1C[C@H]2O[C@@](C)([C@@H]1OC)n1c3ccccc3c3c4c(c5c6ccccc6n2c5c31)C(=O)N[C@@H]4O [UCN-01, (9S)-2,3,10,11,12,13-Hexahydro-3α-hydroxy-10α-methoxy-9-methyl-11α-methyl amino-9β,13β-epoxy-1H,9H-diindolo [1,2,3-gh:3′,2′,1′-lm] pyrrolo[3,4-j][1,7] benzodiazonin-1-one]
[1]; 50 nM drug
  Potentiation % (apoptotic nuclear fragmentation): 5-10%
[1]; 5 μM drug
  Potentiation % (apoptotic nuclear fragmentation): 80-90%
[1]; T98G
  level of apoptosis in PME-1 depleted cells: levels even higher than STS itself

## O=C(CO)[C@@H](O)[C@H](O)COP(=O)(O)O [Xylulose-5-phosphate]
[1]; T98G
  sensitization to STS mediated apoptosis: None of these chemical PP2A activators were able to sensitize

## Cbz-Val-Ala-Asp-CH2F
[1]; T98G
  reversal of PME-1 siRNA and STS mediated apoptosis: complete reversal

## Sodium selenate
[1]; T98G
  sensitization to STS mediated apoptosis: None of these chemical PP2A activators were able to sensitize

## TRAIL
[1]; PME-1 siRNA versus scrambled siRNA, T98G
  synergistic effect of PME-1 depletion / benefit of combination with PME-1 siRNA: did not show the same trend
